# In publication PMC4113456, “Atypical Signaling and Functional Desensitization Response of MAS Receptor to Peptide Ligands” (PLoS ONE, 2014):
# Non-standard residues stand in square brackets, D forms with d. Residues, ends and D or L forms follow the SMILES beside them. No end group written: not given here.
# Columns and labels:
# MAS [1] = test system: MAS; design: method as in ref [8] (a number printed in a supplementary file, which may have a reference list of its own: not looked up in the article's list); details: Bovine MAS; ref [8]; cited from earlier work
# MAS [2] = target: T1, MAS (Homo sapiens, UniProt P04201); assay: HTRF IP1 assay, induced myc-tagged WT MAS HEK293 stable cell line; type: cell-based; details: WT MAS, induced cells
# T1 construct: expressed in transfected cells
# T1 sequence (P04201 1-325): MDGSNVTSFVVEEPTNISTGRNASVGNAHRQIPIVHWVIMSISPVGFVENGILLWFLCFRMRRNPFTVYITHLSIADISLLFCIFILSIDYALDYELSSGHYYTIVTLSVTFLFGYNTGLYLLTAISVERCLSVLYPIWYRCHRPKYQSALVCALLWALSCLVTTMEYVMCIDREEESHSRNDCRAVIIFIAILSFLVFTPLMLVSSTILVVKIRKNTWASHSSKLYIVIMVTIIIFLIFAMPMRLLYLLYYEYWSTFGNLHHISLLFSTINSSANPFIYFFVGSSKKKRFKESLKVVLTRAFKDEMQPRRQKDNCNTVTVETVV
# Protocol: IP1 levels in the cells were measured using the IP-One Tb kit (Cisbio US, Bedford, MA). For the assay, cells were seeded onto a 384-well low volume white cell culture plate at a density of 25,000 cells/well in 20 µl of induction or complete medium. In the IP1 assays the cell density of 25,000 cells/well was consistently maintained to minimize variability between independent experiments. The cells were maintained in a cell culture incubator for 26–28 h. The cells were then serum starved for 2 h by replacing the medium with 7 µl of serum free DMEM/F-12. During this step, 7 µl of serum free DMEM/F-12 was also added to the wells to which IP1 standards would be subsequently added. […] The cells were then placed in the cell culture incubator for 4 h. Later, 3 µl each of d2-labeled IP1 and anti-IP1 cryptate Tb conjugated antibody diluted in lysis buffer was added sequentially to all the wells and the plate was incubated overnight in the dark at room temperature. Time-resolved ratiometric fluorescence emission measurements at 665 nm and 620 nm were taken after excitation at 343 nm on FlexStation 3 instrument.
# For the IP1 assay, a standard curve was generated using the 4-Parameter logistic equation fit of the HTRF readings of IP1 standards using the SoftMax Pro software. The IP1 concentrations in the experiments were extrapolated based on the standard curve parameters. […] For all the assays, the EC50 and IC50 values were estimated by fitting the data to a three parameter dose response using GraphPad Prism software (GraphPad, La Jolla, CA).
# MAS [3] = test system: MAS; design: method as in ref [2] (a number printed in a supplementary file, which may have a reference list of its own: not looked up in the article's list); details: Mouse MAS; ref [2]; cited from earlier work
# MAS [4] = test system: MAS; design: method as in ref [2] (a number printed in a supplementary file, which may have a reference list of its own: not looked up in the article's list); details: Mouse MAS; ref [2]; cited from earlier work; remark: listed apart in the source
# untagged WT MAS = target: T2, untagged WT MAS (Homo sapiens, UniProt P04201); assay: Calcium assay, untagged WT MAS inducible HEK293 stable cell line; type: cell-based; details: up to 250 µM
# T2 construct: expressed in transfected cells
# T2 sequence (P04201 1-325): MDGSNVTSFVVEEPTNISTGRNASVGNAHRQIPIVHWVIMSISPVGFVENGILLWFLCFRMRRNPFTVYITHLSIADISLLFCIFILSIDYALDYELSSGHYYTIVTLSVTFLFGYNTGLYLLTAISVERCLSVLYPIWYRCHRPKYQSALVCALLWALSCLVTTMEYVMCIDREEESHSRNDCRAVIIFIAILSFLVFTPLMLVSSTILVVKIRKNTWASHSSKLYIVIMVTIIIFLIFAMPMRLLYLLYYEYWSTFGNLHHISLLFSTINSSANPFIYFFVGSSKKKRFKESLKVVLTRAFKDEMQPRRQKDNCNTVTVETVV
# Protocol: The assay was performed using FLIPR Calcium 5 assay kit (Molecular Devices, Sunnyvale, CA). For calcium measurements, cells at a density of 125,000 cells/well in 100 µl medium were seeded onto a 96-well clear bottom black cell culture plate that was pre-coated with poly-L-lysine. In the calcium assays the cell density of 125,000 cells/well was consistently maintained to minimize variability between independent experiments. The cells were seeded in induction media to induce MAS expression or in complete media for negative controls. The plate was maintained in a cell culture incubator for 26–28 h. The cells were then serum starved for 2 h by replacing the medium with 100 µl of serum free DMEM. In the case of pre-treatment with pan-inhibitor of G protein signaling, BIM-46187, the cells were initially serum starved for 1 h by replacing the medium with 50 µl of serum free DMEM. After 1 h, 50 µl of BIM-46187 was added to the cells to a final concentration of 25 µM and treated for another 1 h. Following serum starvation, 100 µl of calcium sensitive dye along with 2x (2.5 mM final concentration) probenecid (Life Technologies, Grand Island, NY) was added to the cells. During this step, AR-inverse agonist or BIM-46187 was also added at desired concentrations to the calcium dye preparation in case of experiments where cells were pre-treated with these inhibitors. The cells were maintained for one hour in the cell culture incubator. Following this, the 96-well plate containing cells loaded with calcium dye and a U-bottom 96-well plate containing ligands at 5x the desired final concentration in D-PBS (1.47 mM KH2PO4, 138 mM NaCl, 2.67 mM KCl, 8.1 mM Na2HPO4, pH 7.3) were allowed to equilibrate for 15 min on a FlexStation 3 instrument (Molecular Devices, Sunnyvale, CA) at 37°C. The plates were further equilibrated on the instrument for 5 min with the lids removed from the plates. The instrument was programmed in FLEX mode to add ligands (50 µl at 5x concentration) to the cells and to monitor the fluorescence before and after adding the ligands. […]
# MAS [5] = target: T1, MAS; assay: FLIPR calcium assay, induced myc-tagged WT MAS HEK293 stable cell line; type: cell-based; details: for EC50, Calcium assay / EC50: induced cells
# Protocol: The assay was performed using FLIPR Calcium 5 assay kit (Molecular Devices, Sunnyvale, CA). For calcium measurements, cells at a density of 125,000 cells/well in 100 µl medium were seeded onto a 96-well clear bottom black cell culture plate that was pre-coated with poly-L-lysine. In the calcium assays the cell density of 125,000 cells/well was consistently maintained to minimize variability between independent experiments. The cells were seeded in induction media to induce MAS expression or in complete media for negative controls. The plate was maintained in a cell culture incubator for 26–28 h. The cells were then serum starved for 2 h by replacing the medium with 100 µl of serum free DMEM. In the case of pre-treatment with pan-inhibitor of G protein signaling, BIM-46187, the cells were initially serum starved for 1 h by replacing the medium with 50 µl of serum free DMEM. After 1 h, 50 µl of BIM-46187 was added to the cells to a final concentration of 25 µM and treated for another 1 h. Following serum starvation, 100 µl of calcium sensitive dye along with 2x (2.5 mM final concentration) probenecid (Life Technologies, Grand Island, NY) was added to the cells. During this step, AR-inverse agonist or BIM-46187 was also added at desired concentrations to the calcium dye preparation in case of experiments where cells were pre-treated with these inhibitors. The cells were maintained for one hour in the cell culture incubator. Following this, the 96-well plate containing cells loaded with calcium dye and a U-bottom 96-well plate containing ligands at 5x the desired final concentration in D-PBS (1.47 mM KH2PO4, 138 mM NaCl, 2.67 mM KCl, 8.1 mM Na2HPO4, pH 7.3) were allowed to equilibrate for 15 min on a FlexStation 3 instrument (Molecular Devices, Sunnyvale, CA) at 37°C. The plates were further equilibrated on the instrument for 5 min with the lids removed from the plates. The instrument was programmed in FLEX mode to add ligands (50 µl at 5x concentration) to the cells and to monitor the fluorescence before and after adding the ligands. In re-stimulation and antagonism assays the instrument is programmed to add 35 µl of first ligand followed by addition of the second ligand (35 µl) after 10 min. […] Therefore, when using 5x ligand stock the maximum AR-agonist concentration that could be tested was 10 µM.
# In the calcium assays, the maximum response and minimum response values in relative fluorescence units (RFU) were extracted by subtracting the corresponding baseline value wherein baseline is defined as the average fluorescence of all time points before addition of ligand.
# (§1) The kinetic parameter t1/2 (time taken to reach half of the maximum response) was determined using SoftMax Pro software supplied with the FlexStation 3 instrument (Molecular Devices, Sunnyvale, CA).
# For re-stimulation assays, the data is expressed as the percentage of maximum agonist stimulation to allow for ready comparison between individual experiments. […] For all the assays, the EC50 and IC50 values were estimated by fitting the data to a three parameter dose response using GraphPad Prism software (GraphPad, La Jolla, CA).
# MAS [6] = target: T1, MAS; assay: SRF-RE luciferase reporter assay (Gα12-dependent), induced WT MAS stable cell line; type: cell-based; details: induced cells
# Protocol: The luciferase assay was performed using pGL4 luciferase reporter vectors and Dual-Glo Luciferase Assay System (Promega, Madison, WI). For this assay, the inducible MAS stable cells were initially plated in a 10 cm plate and left overnight in a cell culture incubator. The following day the cells were transfected with 5 µg of pGL4.34 plasmid containing serum response factor response element (SRF-RE)-firefly luciferase reporter gene and 1 µg of pGL4.73 plasmid containing renilla luciferase (as a transfection efficiency control). […] After 8 h of transfection and induction, the cells were seeded onto a 96-well clear bottom black cell culture plate (pre-coated with poly-L-lysine) at a density of 125,000 cells/well in 100 µl of minimal medium (with reduced serum of 0.5%). The plate was maintained in a cell culture incubator for 18–20 h. At this point 50 µl of media in the cells was replaced with 50 µl of serum free media containing ligands at 2x the desired concentration and incubated for an additional 6 h. Finally, the luciferase activity in the cells was measured according the protocol provided by the manufacturer. The luminescence measurements (RLU) in the cells were obtained on FlexStation 3 instrument.
# For re-stimulation assays, the data is expressed as the percentage of maximum agonist stimulation to allow for ready comparison between individual experiments. […] In the luciferase assay, the luminescence measurements (RLU) are presented as a ratio of firefly to renilla luciferase activity. For all the assays, the EC50 and IC50 values were estimated by fitting the data to a three parameter dose response using GraphPad Prism software (GraphPad, La Jolla, CA).
# MAS [7] = target: T1, MAS; design: method as in ref [3] (a number printed in a supplementary file, which may have a reference list of its own: not looked up in the article's list); details: ref [3]; cited from earlier work
# MAS M244A mutant = target: T3, MAS M244A mutant (Homo sapiens, UniProt P04201, M244A); assay: Calcium assay, M244A MAS mutant stable cell line; type: cell-based
# T3 construct: expressed in transfected cells
# T3 sequence (P04201 1-325 M244A): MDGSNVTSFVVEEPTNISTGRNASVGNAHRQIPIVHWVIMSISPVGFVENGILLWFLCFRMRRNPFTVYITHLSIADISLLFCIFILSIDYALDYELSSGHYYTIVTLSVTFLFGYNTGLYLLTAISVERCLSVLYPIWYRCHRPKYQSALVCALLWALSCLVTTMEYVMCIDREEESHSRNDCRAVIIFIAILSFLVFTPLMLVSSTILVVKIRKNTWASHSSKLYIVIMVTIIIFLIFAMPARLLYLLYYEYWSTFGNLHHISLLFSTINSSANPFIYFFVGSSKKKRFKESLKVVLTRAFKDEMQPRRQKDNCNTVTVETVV
# Protocol: (§2) The assay was performed using FLIPR Calcium 5 assay kit (Molecular Devices, Sunnyvale, CA). For calcium measurements, cells at a density of 125,000 cells/well in 100 µl medium were seeded onto a 96-well clear bottom black cell culture plate that was pre-coated with poly-L-lysine. In the calcium assays the cell density of 125,000 cells/well was consistently maintained to minimize variability between independent experiments. The cells were seeded in induction media to induce MAS expression or in complete media for negative controls. The plate was maintained in a cell culture incubator for 26–28 h. The cells were then serum starved for 2 h by replacing the medium with 100 µl of serum free DMEM. In the case of pre-treatment with pan-inhibitor of G protein signaling, BIM-46187, the cells were initially serum starved for 1 h by replacing the medium with 50 µl of serum free DMEM. After 1 h, 50 µl of BIM-46187 was added to the cells to a final concentration of 25 µM and treated for another 1 h. Following serum starvation, 100 µl of calcium sensitive dye along with 2x (2.5 mM final concentration) probenecid (Life Technologies, Grand Island, NY) was added to the cells. During this step, AR-inverse agonist or BIM-46187 was also added at desired concentrations to the calcium dye preparation in case of experiments where cells were pre-treated with these inhibitors. The cells were maintained for one hour in the cell culture incubator. […] The instrument was programmed in FLEX mode to add ligands (50 µl at 5x concentration) to the cells and to monitor the fluorescence before and after adding the ligands. […]
# as §1
# (§3) For re-stimulation assays, the data is expressed as the percentage of maximum agonist stimulation to allow for ready comparison between individual experiments. […]
# MAS T270A mutant = target: T4, MAS T270A mutant (Homo sapiens, UniProt P04201, T270A); assay: Calcium assay, T270A MAS mutant stable cell line; type: cell-based
# T4 construct: expressed in transfected cells
# T4 sequence (P04201 1-325 T270A): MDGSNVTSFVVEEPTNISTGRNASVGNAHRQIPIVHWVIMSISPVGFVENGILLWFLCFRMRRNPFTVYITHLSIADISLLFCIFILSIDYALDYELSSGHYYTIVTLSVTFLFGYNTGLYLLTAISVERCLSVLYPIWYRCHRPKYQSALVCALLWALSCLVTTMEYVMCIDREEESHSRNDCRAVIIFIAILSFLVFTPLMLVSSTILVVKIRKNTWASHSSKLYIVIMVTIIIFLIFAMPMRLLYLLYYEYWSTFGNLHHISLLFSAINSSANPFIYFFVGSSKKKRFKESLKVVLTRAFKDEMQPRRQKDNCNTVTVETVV
# Protocol: as §2, §1, §3
# MAS I191A mutant = target: T5, MAS I191A mutant (Homo sapiens, UniProt P04201, I191A); assay: Calcium assay, I191A MAS mutant stable cell line; type: cell-based
# T5 construct: expressed in transfected cells
# T5 sequence (P04201 1-325 I191A): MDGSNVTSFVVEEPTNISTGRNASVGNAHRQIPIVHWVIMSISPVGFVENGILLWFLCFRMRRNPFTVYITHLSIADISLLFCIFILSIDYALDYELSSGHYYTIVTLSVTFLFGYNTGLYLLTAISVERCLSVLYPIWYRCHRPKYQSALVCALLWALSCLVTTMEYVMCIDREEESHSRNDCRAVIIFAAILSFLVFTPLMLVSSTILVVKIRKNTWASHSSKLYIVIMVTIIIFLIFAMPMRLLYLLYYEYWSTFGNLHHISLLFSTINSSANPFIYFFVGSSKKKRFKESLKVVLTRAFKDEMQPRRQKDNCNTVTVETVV
# Protocol: as §2, §1, §3
# MAS F112A mutant = target: T6, MAS F112A mutant (Homo sapiens, UniProt P04201, F112A); assay: Calcium assay, F112A MAS mutant stable cell line; type: cell-based
# T6 construct: expressed in transfected cells
# T6 sequence (P04201 1-325 F112A): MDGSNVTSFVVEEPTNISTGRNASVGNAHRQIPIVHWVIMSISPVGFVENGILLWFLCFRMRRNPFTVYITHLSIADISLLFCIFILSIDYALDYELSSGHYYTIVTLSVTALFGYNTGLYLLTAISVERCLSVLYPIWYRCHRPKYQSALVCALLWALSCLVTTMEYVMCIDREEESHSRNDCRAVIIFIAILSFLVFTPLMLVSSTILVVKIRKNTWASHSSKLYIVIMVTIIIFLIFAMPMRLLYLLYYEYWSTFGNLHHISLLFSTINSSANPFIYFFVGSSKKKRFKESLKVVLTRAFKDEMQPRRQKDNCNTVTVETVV
# Protocol: as §2, §1, §3
# MAS [8] = details: Mouse MAS; ref [2,5]; cited from earlier work
# MAS [9] = test system: MAS; design: method as in ref [12] (a number printed in a supplementary file, which may have a reference list of its own: not looked up in the article's list); details: Rat MAS; ref [12]; read-out: EC50 (Calcium assay); cited from earlier work
# [10] = WT MAS, t1/2 at 1000 µM (1 mM) ligand concentration
# [11] = WT MAS, t1/2 at 100 µM ligand concentration
compound,measurement,setting,value
CCNC(=O)NS(=O)(=O)c1sc(CC(C)C)cc1-c1ccc(Cn2c(-c3ccccc3)nc(OC)c2C=O)cc1 [AVE 0991],Remarks: Ang(1-7)-like effects,MAS [1],Mimics Ang(1-7) effects
"CC[C@H](C)[C@H](NC(=O)[C@H](Cc1ccc(O)cc1)NC(=O)[C@@H](NC(=O)[C@H](CCCNC(=N)N)NC(=O)[C@@H](N)CC(=O)O)C(C)C)C(=O)N[C@@H](Cc1c[nH]cn1)C(=O)N1CCC[C@H]1C(=O)O [Ang(1–7), angiotensin (1–7)]","EC50, IP1 assay",MAS [2],cbd
same,Type (Arachidonic acid release assay),MAS [3],Endogenous agonist
same,Effect in aortic rings,MAS [4],Vasodilator effect in aortic rings
same,Calcium response,untagged WT MAS,no response
same,"EC50, Calcium assay",MAS [5]; WT MAS,cbd
same,"t1/2, Calcium assay",MAS [5]; [10],11.8 ± 0.6 s
same,"EC50, Luciferase assay",MAS [6],cbd
CC[C@H](C)[C@H](NC(=O)[C@H](Cc1ccc(O)cc1)NC(=O)[C@@H](NC(=O)[C@H](CCCNC(=N)N)NC(=O)[C@@H](N)CC(=O)O)C(C)C)C(=O)N[C@@H](Cc1c[nH]cn1)C(=O)N1CCC[C@H]1C(N)=O [Ang(1–7)-amide],"EC50, Calcium assay",MAS [5]; WT MAS,cbd
same,"t1/2, Calcium assay",MAS [5]; [10],11.4 ± 1.0 s
"CC[C@H](C)[C@H](NC(=O)[C@H](Cc1ccc(O)cc1)NC(=O)[C@@H](N)C(C)C)C(=O)N[C@@H](Cc1cnc[nH]1)C(=O)N1CCC[C@H]1C(=O)N[C@@H](Cc1ccccc1)C(=O)O [AngIV / Ang(3–8), Angiotensin IV]","EC50, Calcium assay",MAS [5]; WT MAS,cbd
same,"t1/2, Calcium assay",MAS [5]; [10],10.4 ± 0.3 s
same,Type (Arachidonic acid release assay),MAS [7],Agonist
CC[C@H](C)[C@H](NC(=O)[C@H](Cc1ccc(O)cc1)NC(=O)[C@@H](N)C(C)C)C(=O)N[C@@H](Cc1c[nH]cn1)C(=O)N1CCC[C@H]1C(=O)N[C@@H](Cc1ccccc1)C(N)=O [AngIV-amide],EC50,MAS [5]; WT MAS,24.4 ± 1.5 µM
same,"t1/2, Calcium assay",MAS [5]; [11],13.7 ± 0.9 s
N[C@@H](CSSC[C@H](N)C(=O)N1CCn2cc(-c3ccccc3)nc2[C@@H]1CC1CCCCC1)C(=O)N1CCn2cc(-c3ccccc3)nc2[C@@H]1CC1CCCCC1 [BIM-46187],Effect of pre-treatment on AR-agonist calcium signal,MAS [5]; 25 µM pre-treatment,complete loss of signal
"CC(C)C[C@H](NC(=O)[C@@H](N)Cc1ccccc1)C(=O)N[C@@H](Cc1ccccc1)C(=O)N[C@@H](CCC(N)=O)C(=O)N1CCC[C@H]1C(=O)N[C@@H](CCC(N)=O)C(=O)N[C@@H](CCCN=C(N)N)C(=O)N[C@@H](Cc1ccccc1)C(N)=O [NPFF, Neuropeptide FF]","t1/2, Calcium assay",MAS M244A mutant,cbd
same,"t1/2, Calcium assay",MAS T270A mutant,9.3±2.0^#∧ s
same,"t1/2, Calcium assay",MAS I191A mutant,9.0 ± 0.4 s
same,"t1/2 (time taken to reach half of the maximal calcium response), Calcium assay",MAS [5]; WT MAS,8.5 ± 0.3 s
same,"t1/2, Calcium assay",MAS F112A mutant,7.7±2.9^#∧ s
CC[C@H](C)[C@H](NC(=O)[C@H](Cc1ccc(O)cc1)NC(=O)[C@@H](NC(=O)[C@H](CCCN=C(N)N)NC(=O)CNC)C(C)C)C(=O)N[C@@H](Cc1c[nH]cn1)C(=O)N1CCC[C@H]1C(N)=O [[Sar^1]-Ang(1–7)-amide],EC50,MAS [5]; WT MAS,193 ± 59 µM
same,"t1/2, Calcium assay",MAS [5]; [11],18.2 ± 1.2 s
CC(C)C[C@H](NC(=O)[C@H](N)Cc1ccc(O)cc1)C(=O)N(C)[C@@H](Cc1ccccc1)C(=O)N[C@@H](CCC(N)=O)C(=O)N1CCC[C@H]1C(=O)N[C@@H](CCC(N)=O)C(=O)N[C@@H](CCCN=C(N)N)C(=O)N[C@@H](Cc1ccccc1)C(N)=O [[^DY^1] [^NMeF^3]-NPFF] (HELM PEPTIDE1{[dY].L.[meF].Q.P.Q.R.F.[am]}$$$$V2.0),EC50,MAS [5]; WT MAS,2.4 ± 0.3 µM
"A779: Ang(1–7) analog, sequence DRVYIH^DA (DRVYIH[dA])","EC50, Calcium assay",MAS [5]; WT MAS,cbd
same,"t1/2, Calcium assay",MAS [5]; [11],cbd ^#
same,Remarks: effect on Ang(1-7) response,MAS [8],Inhibits Ang(1-7) response
"MBP7: peptide agonist, sequence KAQLRRLS",EC50,MAS [9],36.4 µM
